The assay relates to LAPC-4 cells. The experiment in a line: Proliferation assay with LAPC-4 cells. Type of assay: cell-based. As to conditions: Homo sapiens, LAPC4, 168 h; in the presence of 1×10^−9 M R1881, seven days, AlamarBlue; read-out: IC50 LAPC-4 cell proliferation. Here is the method:
LAPC-4 cells (Klein et al., Nat Med. 3(4): 402-8, 1997) were plated out at a density of 4000 cells per well of a 96-well cell culture plate in RMPI 1640 medium (F1275, Biochrom AG) that contained activated charcoal-treated calf serum (FCS Serum Gold, PAA Laboratories) at a concentration of 10% (v/v). On the next day the cells were treated with the test substances in concentrations from 1×10^−8 to 1×10^−10 M in the presence of 1×10^−9 M R1881. Cell proliferation was determined seven days later after incubation for 2 hours with AlamarBlue (DAL1100, Invitrogen) (Nakayama et al., J Immunol Methods, 204(2): 205-8, 1997). The fluorescence values obtained were normalized, wherein 100% corresponded to the effect of the unstimulated control (without R1881), and 0% corresponded to the effect of the stimulated control (R1881 plus DMSO instead of test substance). The IC50 value was determined by regression analysis based on a four-parameter equation (minimum, maximum, IC50, Hill coefficient; Y=Max+(Min−Max)/(1+(X/IC50)^Hill)).

pIC50: −log10 of the molar value.

Take `N#Cc1cccc2c(O[C@H]3CC[C@H](NC(=O)c4cccc(F)c4)CC3)ccnc12` [Example 23, N-{trans-4-[(8-cyanoquinolin-4-yl)oxy]cyclohexyl}-3-fluorobenzamide]: the pIC50 is 7.07.

The values are drawn from patent US9428460B2, “N-[4-(quinolin-4-yloxy)cyclohexyl(methyl)](hetero)arylcarboxamides as androgen receptor antagonists, production and use thereof as medicinal products” (BAYER PHARMA AKTIENGESELLSCHAFT, priority 2012, dated 2016).
